Measurements as given in patent publication US20050256174A1, “Raf kinase inhibitors” (priority 1998, published 2005).

SMILES	melting point
COC(=O)c1cc(C(C)(C)C)sc1NC(=O)Nc1ccccc1 [Example 27, 5-tert-Butyl-2-(3-phenyl-ureido)-thiophene-3-carboxylic acid methyl ester]	80 to 82 °C
COC(=O)c1sc(C(C)C)cc1NC(=O)Nc1ccc(C)cc1 [Example 1, 5-Isopropyl-3-(3-p-tolyl-ureido)-thiophene-2-carboxylic acid methyl ester]	93 to 95 °C
COC(=O)c1cc(C(C)(C)C)sc1NC(=O)Nc1ccc(C)cc1 [Example 26, 5-tert-Butyl-2-(3-p-tolyl-ureido)-thiophene-3-carboxylic acid methyl ester]	109 to 111 °C

Further lines, results first:

melting point	SMILES
206 to 208 °C	CCc1nnc(NC(=O)Nc2sc(C(C)(C)C)cc2C(=O)OC)s1 [Example 28, 5-tert-Butyl-2-(3-(5-ethyl-[1,3,4]thiadiazol-2-yl)-ureido)-thiophene-3-carboxylic acid methyl ester]
70 to 73 °C	COC(=O)c1cc(C(C)C)sc1NC(=O)Nc1ccc(C)s1 [Example 30, 5-Isopropyl-2-[3-(5-methyl-thiophen-2-yl)-ureido]-thiophene-3-carboxylic acid methyl ester]
49 to 51 °C	COC(=O)c1cc(C(C)C)sc1NC(=O)Nc1ccc(C)cc1 [Example 29, 5-Isopropyl-2-(3-p-tolyl-ureido)-thiophene-3-carboxylic acid methyl ester]
